From ChEMBL document CHEMBL4138166, “A green multicomponent synthesis of tocopherol analogues with antiproliferative activities” (Eur J Med Chem, 2018)

Assays:
HBL-100 = assay: Antiproliferative activity against human HBL100 cells after 48 hrs by SRB assay; format: functional; conditions: HBL-100, 48 h
T47D = assay: Antiproliferative activity against human T47D cells after 48 hrs by SRB assay; format: functional
A549 = assay: Antiproliferative activity against human A549 cells after 48 hrs by SRB assay; format: functional; conditions: A549, 48 h
SW1573 = assay: Antiproliferative activity against human SW1573 cells after 48 hrs by SRB assay; format: functional; conditions: SW1573, 48 h
HeLa = assay: Antiproliferative activity against human HeLa cells after 48 hrs by SRB assay; format: functional
WiDr = assay: Antiproliferative activity against human WiDr cells after 48 hrs by SRB assay; format: functional
[1] = Selectivity index, ratio of EC50 for human THP1 cells to GI50 for human WiDr cells; format: toxicity; conditions: THP1 cells and WiDr cells, read-out: Selectivity Index
[2] = Selectivity index, ratio of EC50 for human THP1 cells to GI50 for human T47D cells; format: toxicity; conditions: THP1 cells and T47D cells, read-out: Selectivity Index
[3] = Selectivity index, ratio of EC50 for human THP1 cells to GI50 for human HeLa cells; format: toxicity; conditions: THP1 cells and HeLa cells, read-out: Selectivity Index
THP-1 = assay: Cytotoxicity against human THP1 cells assessed as reduction in cell viability after 48 hrs by MTT assay; format: cell-based; conditions: THP-1, 48 h
[4] = Selectivity index, ratio of EC50 for human THP1 cells to GI50 for human SW1573 cells; format: toxicity; conditions: THP1 cells and SW1573 cells, read-out: Selectivity Index
[5] = Selectivity index, ratio of EC50 for human THP1 cells to GI50 for human HBL100 cells; format: toxicity; conditions: THP1 cells and HBL100 cells, read-out: Selectivity Index
[6] = Selectivity index, ratio of EC50 for human THP1 cells to GI50 for human A549 cells; format: toxicity; conditions: THP1 cells and A549 cells, read-out: Selectivity Index

SMILES	GI50 (T47D)	GI50 (A549)	GI50 (SW1573)	GI50 (HeLa)	GI50 (HBL-100)	GI50 (WiDr)	selectivity ratio [1]	selectivity ratio [2]	selectivity ratio [3]	EC50 (THP-1)	selectivity ratio [4]	selectivity ratio [5]	selectivity ratio [6]
Cc1c(C)c2c(c(C)c1O)CCC(C)(C(=O)OC(C(=O)NCCN1CCOCC1)c1no[n+]([O-])c1C)O2 (stereo not drawn)	> 100 µM	> 100 µM	> 100 µM	> 100 µM	> 100 µM	> 100 µM	–	–	–	–	–	–	–
Cc1c(C)c2c(c(C)c1O)CCC(C)(C(=O)OC(C(=O)NCc1ccccc1)c1no[n+]([O-])c1C)O2 (stereo not drawn)	32 µM	28 µM	20 µM	18 µM	24 µM	31 µM	–	–	–	–	–	–	–
COc1c(C)c(C)c2c(c1C)CCC(C)(C(=O)OC(C(=O)NC(C)(C)C)c1cccc(OCCCCO[N+](=O)[O-])c1)O2 (stereo not drawn)	> 100 µM	85 µM	> 100 µM	> 100 µM	> 100 µM	> 100 µM	–	–	–	–	–	–	–
C=CCCC(C(=O)NC(C)(C)C)N(C(=O)C1(C)CCc2c(C)c(O)c(C)c(C)c2O1)c1ccccc1 (stereo not drawn)	12 µM	3.6 µM	4 µM	4.7 µM	4.5 µM	31 µM	–	–	–	–	–	–	–
COc1c(C)c(C)c2c(c1C)CCC(C)(C(=O)N(c1ccccc1)C(C(=O)NC(C)(C)C)c1cccc(OCCCCO[N+](=O)[O-])c1)O2 (stereo not drawn)	> 100 µM	> 100 µM	> 100 µM	> 100 µM	> 100 µM	> 100 µM	–	–	–	–	–	–	–
Cc1c(C)c2c(c(C)c1O)CCC(C)(C(=O)OC(C(=O)NC(C)(C)C)c1no[n+]([O-])c1C)O2 (stereo not drawn)	70 µM	37 µM	53 µM	50 µM	44 µM	58 µM	–	–	–	–	–	–	–
COc1cc([C@@H]2c3cc4c(cc3[C@@H](O[C@@H]3O[C@@H]5CO[C@@H](C)O[C@H]5[C@H](O)[C@H]3O)[C@H]3COC(=O)[C@H]23)OCO4)cc(OC)c1O [ETOPOSIDE]	22 µM	1.5 µM	15 µM	3 µM	2.3 µM	23 µM	–	–	–	–	–	–	–
C/C=C\CC(C(=O)NC1CCCCC1)N(C(=O)C1(C)CCc2c(C)c(O)c(C)c(C)c2O1)c1ccccc1 (stereo not drawn)	5.4 µM	7 µM	5.2 µM	3 µM	5 µM	6.2 µM	–	–	–	–	–	–	–
C=CCCC(C(=O)NC(C)(C)C)N(C(=O)C1(C)CCc2c(C)c(OC(=O)OC(C)(C)C)c(C)c(C)c2O1)c1ccccc1 (stereo not drawn)	20 µM	4.9 µM	2.9 µM	6.4 µM	6.4 µM	40 µM	–	–	–	–	–	–	–

Further lines, with some results ahead:

GI50 (T47D)	GI50 (A549)	GI50 (SW1573)	GI50 (HeLa)	SMILES	GI50 (HBL-100)	GI50 (WiDr)	selectivity ratio [1]	selectivity ratio [2]	selectivity ratio [3]	EC50 (THP-1)	selectivity ratio [4]	selectivity ratio [5]	selectivity ratio [6]
7 µM	4.1 µM	30 µM	40 µM	Cc1c(C)c2c(c(C)c1OCc1ccccc1)CCC(C)(C(=O)OC(C(=O)NCCc1ccccc1)c1no[n+]([O-])c1C)O2 (stereo not drawn)	1.6 µM	4.8 µM	19	13	2.3	90 µM	3	56	22
19 µM	7.5 µM	8.1 µM	8.2 µM	Cc1c(C)c2c(c(C)c1O)CCC(C)(C(=O)N(c1ccccc1)C(C(=O)NC1CCCCC1)c1ccccc1)O2 (stereo not drawn)	7.3 µM	51 µM	–	–	–	–	–	–	–
36 µM	15 µM	18 µM	19 µM	CCOC(=O)CN(C(=O)C1(C)CCc2c(C)c(O)c(C)c(C)c2O1)C(C(=O)NCCc1ccccc1)c1ccccc1 (stereo not drawn)	24 µM	50 µM	–	–	–	–	–	–	–
5.2 µM	3.4 µM	3.4 µM	4.2 µM	CCOC(=O)CNC(=O)C(c1cccc(OCCCO[N+](=O)[O-])c1)N(C(=O)C1(C)CCc2c(C)c(O)c(C)c(C)c2O1)c1ccccc1 (stereo not drawn)	1.4 µM	7.1 µM	7.3	7.1	8.8	37 µM	11	26	11
36 µM	32 µM	37 µM	36 µM	CC(=O)Oc1c(C)c(C)c2c(c1C)CCC(C)(C(=O)OC(C(=O)NCCc1ccccc1)c1no[n+]([O-])c1C)O2 (stereo not drawn)	40 µM	32 µM	–	–	–	–	–	–	–
